The results in this text go back to PubChem BioAssay (NCI).

Structures are written as SMILES.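 All cell lines were grown in 96-well plates and treated with compound for 48 hours. GI50: concentration for 50% inhibition of growth. TGI: concentration producing complete growth inhibition.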

Some test systems named below: EKVX NSCLC; SR leukemia; UACC-257 melanoma; NCI-H460 lung; SF-539 CNS; T-47D breast; SW-620 colon; COLO 205 colon; NCI-H522 lung; MDA-N.
What all share (test): growth of human tumour cells (NCI), 48 h

On to `c1ccc(CN2CCC(Nc3ccccc3)(c3nnnn3Cc3ccccc3)CC2)cc1`, for which the TGI was above 100 µM in the assay on EKVX NSCLC; 93.2 µM in the assay on SR leukemia; 34.5 µM in the assay with UACC-257 melanoma; 53.9 µM with NCI-H460 lung; 41.5 µM in the assay on SF-539 CNS; 72.4 µM in the assay on T-47D breast. In addition, the TGI in the assay with SW-620 colon was determined as 60.6 µM; in the assay with COLO 205 colon, 28.9 µM.
Take `COc1cccc(C=O)c1[O-].[O]=[U](=[O])([OH2+])[OH2+]`: the TGI in the assay on EKVX NSCLC was above 100 µM; with SR leukemia, 87.5 µM; in the assay on UACC-257 melanoma, above 100 µM; in the assay with NCI-H522 lung it was above 100 µM; in the assay with NCI-H460 lung it was 58.4 µM; in the assay with SF-539 CNS, 64.9 µM. In addition, the TGI in the assay with SW-620 colon and in the assay on COLO 205 colon was above 100 µM each time.
On to `NCc1cccc(O)c1O`, for which the TGI with EKVX NSCLC, with SR leukemia, in the assay with UACC-257 melanoma, in the assay on NCI-H522 lung, in the assay on NCI-H460 lung and in the assay on SW-620 colon was above 100 µM in each case. Moreover, in the assay on COLO 205 colon, the TGI was above 100 µM.
Consider `O=C(Nc1ccccc1C(=O)NCc1ccccc1)/C(=C/c1ccccc1)NC(=O)c1ccccc1`, for which the TGI in the assay on EKVX NSCLC, in the assay on SR leukemia, in the assay on UACC-257 melanoma, in the assay with NCI-H522 lung, in the assay on SF-539 CNS and in the assay with T-47D breast was above 100 µM throughout. For the same compound, the TGI in the assay on SW-620 colon and in the assay on COLO 205 colon was above 100 µM in each case.
In the case of `CC(C)(C)CC(C)(C)c1cc(O)c(O)c(CN2CCCCC2)c1`, the TGI in the assay with EKVX NSCLC amounted to 26.4 µM; in the assay on UACC-257 melanoma it was 26.1 µM; in the assay on NCI-H522 lung it was 23.5 µM; in the assay on NCI-H460 lung, 24 µM; in the assay on T-47D breast it was 33.9 µM; in the assay with SW-620 colon, 28 µM. For the same compound, the TGI in the assay with COLO 205 colon was 25.3 µM; with MDA-N it was 28.3 µM.
With `CC1(C)CC(=O)C2(CC(CSc3ccccc3)C(CS(=O)(=O)c3ccccc3)C2)C(=O)C1` (centres undefined), the TGI in the assay with EKVX NSCLC, in the assay on UACC-257 melanoma, in the assay with NCI-H522 lung, in the assay on SF-539 CNS, in the assay on T-47D breast and in the assay on SW-620 colon was above 100 µM in each case. Besides, in the assay with COLO 205 colon, the TGI is above 100 µM.
`CN(C)CCn1c(CO)nc2c1c(=O)n(C)c(=O)n2C`: the TGI with EKVX NSCLC, in the assay on SR leukemia, in the assay on UACC-257 melanoma, with NCI-H522 lung, in the assay on NCI-H460 lung and with SF-539 CNS was above 100 µM throughout. In addition, the TGI in the assay on T-47D breast, in the assay on SW-620 colon and in the assay with COLO 205 colon was above 100 µM in each case.
Consider `CCOC(=O)c1cc(C)nc2c1c(=O)n(-c1ccccc1)c(=O)n2CCCCN1CCN(c2ccccc2)CC1`, for which the TGI with EKVX NSCLC is above 100 µM; in the assay with SR leukemia, 48.4 µM; in the assay on UACC-257 melanoma it was 99.8 µM; in the assay with NCI-H522 lung, above 100 µM; in the assay with T-47D breast it was above 100 µM; in the assay with SW-620 colon, above 100 µM. For the same compound, the TGI with COLO 205 colon is above 100 µM.
Consider `Cc1nn(-c2ccccc2)c(C)c1/C=N/N=C1\S/C(=C\c2ccc(Cl)cc2)C(=O)N1c1ccccc1`, for which the TGI in the assay on EKVX NSCLC, with UACC-257 melanoma, with NCI-H460 lung, in the assay with SF-539 CNS, in the assay on T-47D breast and with SW-620 colon was above 100 µM throughout. In addition, the TGI in the assay on COLO 205 colon and with MDA-N was above 100 µM each time.
For `CCN=C1C=CC(=C(c2ccc(N(CC)CC)cc2)c2ccc(N(CC)CC)cc2)c2ccccc21`, in the assay with EKVX NSCLC, the GI50 is 0.0378 µM and the TGI is 1.18 µM. Besides, in the assay on UACC-257 melanoma, the GI50 is 0.077 µM and the TGI turned out to be 1.18 µM.
As to `Cc1nnc2n1N=C(c1ccc(Cl)cc1Cl)/C(=C/c1ccc(-c3ccc([N+](=O)[O-])cc3Cl)o1)S2`, the GI50 was 61.2 µM in the assay with EKVX NSCLC; 18.1 µM in the assay on UACC-257 melanoma; 20.9 µM with NCI-H522 lung; 26 µM in the assay on NCI-H460 lung; 18.5 µM in the assay with SF-539 CNS; 83 µM with T-47D breast. The GI50 in the assay with SW-620 colon is 13.3 µM; with COLO 205 colon, 54.8 µM. In addition, the TGI in the assay with EKVX NSCLC is above 100 µM; in the assay with UACC-257 melanoma, 41.2 µM; in the assay with NCI-H522 lung, 44.9 µM; in the assay with NCI-H460 lung it was above 100 µM; in the assay on SF-539 CNS, 36.6 µM; in the assay on T-47D breast, above 100 µM. Also, the TGI in the assay on SW-620 colon was 33 µM; with COLO 205 colon, above 100 µM.
For `Cc1cc(OC(=O)NCn2cc(-c3ccccc3)nn2)ccc1Cl`, the TGI in the assay on EKVX NSCLC, with SR leukemia, with UACC-257 melanoma, in the assay on NCI-H522 lung, with NCI-H460 lung and in the assay with SF-539 CNS was above 100 µM each time. Besides, the TGI in the assay on SW-620 colon and with COLO 205 colon was above 100 µM in each case.
Consider `NCC(O)CSCc1ccc(Cl)cc1` (centres undefined), for which the TGI in the assay on UACC-257 melanoma, in the assay with NCI-H522 lung, in the assay on NCI-H460 lung, in the assay on T-47D breast, in the assay with SW-620 colon and with COLO 205 colon was above 100 µM throughout. Further, the TGI in the assay with MDA-N was above 100 µM.
With `CCOP(=O)(OCC)/C(=C/c1cccs1)CC(C)=O`, the TGI with EKVX NSCLC, with UACC-257 melanoma, in the assay with NCI-H460 lung, with SF-539 CNS, in the assay with T-47D breast and in the assay with SW-620 colon was above 100 µM throughout. For the same compound, the TGI in the assay on COLO 205 colon and in the assay on MDA-N was above 100 µM throughout.
In the case of `COc1cc(C2C3=C(COC3=O)Oc3cc4c(cc32)OCO4)cc(OC)c1O` (centres undefined), the TGI with EKVX NSCLC was 94.1 µM; in the assay on SR leukemia, above 100 µM; in the assay on UACC-257 melanoma, above 61.7 µM; in the assay with NCI-H522 lung, below 0.088 µM; in the assay on NCI-H460 lung it was 4.05 µM; in the assay with SF-539 CNS it was below 0.0148 µM. The results for the TGI in the assay on T-47D breast, in the assay with SW-620 colon and with COLO 205 colon were 60.3 µM, above 100 µM and 0.0776 µM, respectively.
Regarding `O=C1C=CC(=O)c2c(O)c(NCCOCCO)c(Cl)c(O)c21`, the TGI with SR leukemia turned out to be 37.9 µM; in the assay with UACC-257 melanoma, 8.34 µM; in the assay with NCI-H522 lung, 3.69 µM; in the assay with NCI-H460 lung, 13.6 µM; in the assay on SF-539 CNS, 15 µM; in the assay on SW-620 colon, 11 µM. In addition, the TGI in the assay with COLO 205 colon is 4.8 µM.
